Patent publication US20060025485A1, “Hydroxybenazamide compounds for treatment of cancer” (priority 2004, published 2006)
Each block holds one compound with its values, some of them ahead of it.

Experiments:
[1] = in vitro; conditions: human, H727 cells
Experimental: (§1) Cells tested (H727 and BON) were harvested by trypsinization and plated at a cell density of 3,000 cells/well of each microtiter plate. Cells were grown for 4 hrs at 37° C., with 5% CO2 in a humidified incubator to allow cell attachment to occur before compound addition. […] 10 μl of each compound stock was added to duplicate microtiter plates for each cell line. The final concentration of DMSO in all wells was 1%. To test 200 μM, 2% DMSO was added to each well. Data was compared to the effect of 2% DMSO. All compounds were tested in duplicate. Cells were incubated with the test compounds for 72 hrs before reading the assay. Then processing and calculation were performed according to manufacturer's directions for Cell Titer Glo Assay (Promega, Madison, Wis.).

[2] = in vitro; conditions: human, BON cells
Experimental: as §1

[3] = test system: Chromogranin A; assay: Western analysis of chromogranin A, BON-raf cells treated with estradiol; assay type: cell-based, human
Experimental: Usually, carcinoid tumors secrete high levels of both chromogranin A and serotonin due to disregulated hormone production. Similarly, BON cells treated with control or estradiol, and BON-raf cells treated with control had high levels of the NE marker chromogranin A as determined by Western analysis. […] In addition, BON and BON-raf cells were tested for serotonin secretion by ELISA after treatment with control or estradiol.
Cell culture. Human pulmonary carcinoid cells (NCI-H727) were obtained from American Type Culture Collection (Manassas, Va.) and human pancreatic carcinoid tumor cells, BON a generous gift of Drs. Evers and Townsend (Parekh et al., 1994), were maintained in RPMI 1640 and D-MEM-F12 media (Life Technologies, Rockville, Md.) respectively supplemented with 10% Fetal Bovine Serum (Sigma, St. Louis, Mo.), 100 IU/ml penicillin and 100 μg/ml streptomycin (Life Technologies) in a humidified atmosphere of 5% CO2 in air at 37° C. The maintenance of BON-raf cells and the activation of Raf-1 were followed as described previously (Sippel et al., 2003; Sippel and Chen, 2002; McMahon, 2001).
Western blot analysis. Cellular extracts were prepared and quantified by BCA protein assay kit (Pierce, Rockford, Ill.) as previously described (Sippel et al., 2003). 30-50 μg of denatured proteins from each sample underwent electrophoresis on a SDS-polyacrylamide gel and transferred to a nitrocellulose membranes (Schleicher and Schuell, Keene, N.H.). Membranes were blocked for 1 hr in milk solution (1×PBS, 5% non-fat dry milk, 0.05% Tween-20) and then incubated at 4° C. overnight with primary antibodies. The following primary antibody dilutions were used: phospho-ERK 1/2 (1:1,000); phospho-MEK (1:1,000); phospho-Raf-1 (Serine338) (1:1,000); p21 and p18, (1:1,000); (Cell Signal Technology, Beverly, Mass.), Chromogranin A (1:2,000; Zymed Laboratories, San Francisco, Calif.); MASH-1 (1:1000, BD Pharmingen) and G3PDH (1:10,000; Trevigen, Gaithersburg, Md.). After primary antibody incubation, membranes were washed 3×5 min in PBS-T wash buffer (1×PBS, 0.05% Tween 20). […]

[4] = test system: c-Raf as well as MEK and ERK; conditions: human monocytic THP-1 cells; cited from earlier work

IC50 at 72 h [1]: 1100 nM | IC50 at 72 h [2]: 1400 nM
Structure (SMILES): COc1cccc2c1C(=O)c1c(O)c3c(c(O)c1C2=O)C[C@@](O)(C(=O)CO)C[C@@H]3O[C@H]1C[C@H](N)[C@H](O)[C@H](C)O1 [Doxorubicin]

Structure (SMILES): C[C@]12CC[C@@H]3c4ccc(O)cc4CC[C@H]3[C@@H]1CC[C@@H]2O [Estradiol]
reduction of chromogranin A levels ([3]; 2 days): 31% | reduction of chromogranin A levels ([3]; 4 days): 68% | reduction of chromogranin A levels ([3]; 6 days): 50%

Structure (SMILES): COc1nccc(-c2c(-c3ccc(F)cc3)ncn2C2CCC(O)CC2)n1 (stereo not drawn) [SB239063]
activation of c-Raf, MEK and ERK [4]: activates c-Raf as well as MEK and ERK
